In the supplement of paper PMC4862054:
Where “and” joins values, the source holds several entries; their conditions need not be identical. Equal values may be shown once.

Tests used:
Conditions in all cases: incubation time: 72 h
[1] = system: CAL-148; assay: normalised viability (% of control), CellTiter-Blue; higher = more viable cells (about 100 = DMSO control)
Protocol: (§1)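 DSRT, CellTiter-Blue viability, 72 h incubation. Signal is normalised to DMSO and benzethonium chloride controls. Value is the normalised response at dose 6.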

[2] = system: CAL-85-1; assay: as above
Protocol: as §1

[3] = system: HDQ-P1; assay: as above
Protocol: as §1

[4] = system: DU-4475; assay: as above
Protocol: as §1

[5] = system: CAL-51; assay: as above
Protocol: as §1

[6] = system: MDA-MB-453; assay: as above
Protocol: as §1

[7] = system: HCC1937; assay: normalised response (% of control), CellTox Green; higher = less cell death (100 = DMSO, 0 = benzethonium chloride kill control)
Method in brief: (§2)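 Breast cancer cell lines (20 µl suspension) were seeded into 384-well plates holding compound at 5 concentrations in 10-fold steps over a compound-specific 10,000-fold range, then incubated 72 h. CellTox Green fluorescence (485/520 nm) was read first, then CellTiter-Glo luminescence after 10 min at room temperature. Each plate was normalised to 0.1 % DMSO (100) and a positive kill control (0). Each value is the normalised signal at a single concentration of the series.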

[8] = system: CAL-120; assay: as above
Method in brief: as §2

[9] = system: CAL-148; assay: as above
Method in brief: as §2

[10] = system: MDA-MB-468; assay: as above
Method in brief: as §2

[11] = system: CAL-85-1; assay: as above
Method in brief: as §2

[12] = system: HDQ-P1; assay: as above
Method in brief: as §2

[13] = system: DU-4475; assay: as above
Method in brief: as §2

[14] = system: BT-549; assay: as above
Method in brief: as §2

[15] = system: CAL-51; assay: as above
Method in brief: as §2

[16] = system: HCC1599; assay: as above
Method in brief: as §2

[17] = system: MCF-10A; assay: as above
Method in brief: as §2

[18] = system: MDA-MB-231; assay: as above
Method in brief: as §2

[19] = system: HCC1143; assay: as above
Method in brief: as §2

[20] = system: MDA-MB-436; assay: as above
Method in brief: as §2

[21] = system: Hs578T; assay: as above
Method in brief: as §2

[22] = system: MFM-223; assay: as above
Method in brief: as §2

[23] = system: BT-474; assay: as above
Method in brief: as §2

[24] = system: MDA-MB-453; assay: as above
Method in brief: as §2

[25] = system: HCC1937; assay: normalised response (% of control), CellTiter-Glo; higher = more viable cells (100 = DMSO, 0 = benzethonium chloride kill control)
Protocol: (§3)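 DSRT, 72 h incubation, CellTox Green / CellTiter-Glo readout. Signal is normalised to DMSO and benzethonium chloride controls. Value is the normalised response at the highest dose.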

[26] = system: CAL-120; assay: as above
Protocol: as §3

[27] = system: CAL-148; assay: as above
Protocol: as §3

[28] = system: MDA-MB-468; assay: as above
Protocol: as §3

[29] = system: CAL-85-1; assay: as above
Protocol: as §3

[30] = system: HDQ-P1; assay: as above
Protocol: as §3

[31] = system: DU-4475; assay: as above
Protocol: as §3

[32] = system: BT-549; assay: as above
Protocol: as §3

[33] = system: CAL-51; assay: as above
Protocol: as §3

[34] = system: HCC1599; assay: as above
Protocol: as §3

[35] = system: MCF-10A; assay: as above
Protocol: as §3

[36] = system: SK-BR-3; assay: as above
Protocol: as §3

[37] = system: MDA-MB-231; assay: as above
Protocol: as §3

[38] = system: HCC1143; assay: as above
Protocol: as §3

[39] = system: MDA-MB-436; assay: as above
Protocol: as §3

[40] = system: Hs578T; assay: as above
Protocol: as §3

[41] = system: MFM-223; assay: as above
Protocol: as §3

[42] = system: BT-474; assay: as above
Protocol: as §3

[43] = system: MDA-MB-453; assay: as above
Protocol: as §3

Compound: COCC[n+]1c2c(n(Cc3cnccn3)c1C)C(=O)c1ccccc1C2=O [YM155] (300 nM)
- normalised viability [1]: 1.6%
- normalised viability [2]: 1.89%
- normalised viability [3]: -0.08%
- normalised viability [4]: 10.8%
- normalised viability [5]: 2.3%
- normalised viability [6]: 10.9%

Compound: N#Cc1ccc(COC[C@H]2O[C@@H](n3c(NCc4ccc(Cl)c(Cl)c4)nc4c(N)ncnc43)[C@H](O)[C@@H]2O)cc1 (300 nM)
- normalised viability [1]: 110%
- normalised viability [2]: 96.9%
- normalised viability [3]: 67%
- normalised viability [4]: 91.7%
- normalised viability [5]: 117%
- normalised viability [6]: 112%

Compound: S=P(N1CC1)(N1CC1)N1CC1 [Thio-TEPA] (3000 nM)
- normalised viability [1]: 91.2%
- normalised viability [2]: 96.8%
- normalised viability [3]: 90.4%
- normalised viability [4]: 92.2%
- normalised viability [5]: 94.8%
- normalised viability [6]: 95.5%

Compound: COc1cc(OC2CCN(C)CC2)ccc1Nc1ncc2c(n1)n(C1CCCC1)c(=O)n2C [AZ 3146] (300 nM)
- normalised viability [1]: 115%
- normalised viability [2]: 109%
- normalised viability [3]: 76.6%
- normalised viability [4]: 115%
- normalised viability [5]: 87.6%
- normalised viability [6]: 97.2%

Compound: COc1cc2ncnc(Nc3ccc(F)c(Cl)c3)c2cc1OCCCN1CCOCC1 [Gefitinib] (300 nM)
- normalised viability [1]: 95.6% and 84.7%
- normalised viability [2]: 69.8% and 65.9%
- normalised viability [3]: 64% and 66.2%
- normalised viability [4]: 83.8% and 84.4%
- normalised viability [5]: 104% and 106%
- normalised viability [6]: 98.2% and 83.2%

Compound: COCC1(CO)C(=O)C2CCN1CC2 (stereo not given) [Prima-1 Met] (300 nM)
- normalised viability [1]: 94.5%
- normalised viability [2]: 83.3%
- normalised viability [3]: 53.8%
- normalised viability [4]: 116%
- normalised viability [5]: 91.2%
- normalised viability [6]: 87.1%

Compound: Cc1ccc(NC(=O)c2ccc(CN3CCN(C)CC3)cc2)cc1Nc1nc(-c2cccnc2)cs1 [Masitinib] (300 nM)
- normalised viability [1]: 84.7%
- normalised viability [2]: 90.4%
- normalised viability [3]: 68.5%
- normalised viability [4]: 98.7%
- normalised viability [5]: 98.2%
- normalised viability [6]: 88.5%

Compound: NC(=O)c1ccc(I)c([N+](=O)[O-])c1 [Iniparib] (300 nM)
- normalised viability [1]: 89.2%
- normalised viability [2]: 88.8%
- normalised viability [3]: 87.2%
- normalised viability [4]: 84%
- normalised viability [5]: 98.7%
- normalised viability [6]: 95.2%

Compound: O=C(Nc1ccncc1)C(=O)c1cn(Cc2ccc(Cl)cc2)c2ccccc12 [Indibulin] (300 nM)
- normalised viability [1]: 95.7%
- normalised viability [2]: 55.8%
- normalised viability [3]: 30.7%
- normalised viability [4]: 115%
- normalised viability [5]: 71.3%
- normalised viability [6]: 41.4%

Compound: CCc1c2c(nc3ccc(OC(=O)N4CCC(N5CCCCC5)CC4)cc13)-c1cc3c(c(=O)n1C2)COC(=O)[C@]3(O)CC [Irinotecan] (300 nM)
- normalised viability [1]: 82.5% and 96.9%
- normalised viability [2]: 81.2% and 99.8%
- normalised viability [3]: 64.5% and 88.1%
- normalised viability [4]: 74.1% and 85.6%
- normalised viability [5]: 101% and 105%
- normalised viability [6]: 97.6% and 103%

Compound: O=P1(N(CCCl)CCCl)NCCCO1 (stereo not given) [Cyclophosphamide] (1200 nM)
- normalised viability [1]: 107%
- normalised viability [2]: 108%
- normalised viability [3]: 81.5%
- normalised viability [4]: 96.2%
- normalised viability [5]: 106%
- normalised viability [6]: 112%

Compound: Oc1ccc2c(c1)CC[C@H](c1ccccc1)[C@@H]2c1ccc(OCCN2CCCC2)cc1 [Lasofoxifene] (30 nM)
- normalised viability [1]: 116%
- normalised viability [2]: 100%
- normalised viability [3]: 60.8%
- normalised viability [4]: 93%
- normalised viability [5]: 106%
- normalised viability [6]: 116%

Compound: CO[C@H]1C[C@@H]2CC[C@@H](C)[C@@](O)(O2)C(=O)C(=O)N2CCCC[C@H]2C(=O)O[C@H]([C@H](C)C[C@@H]2CC[C@@H](OP(C)(C)=O)[C@H](OC)C2)CC(=O)[C@H](C)/C=C(\C)[C@@H](O)[C@@H](OC)C(=O)[C@H](C)C[C@H](C)/C=C/C=C/C=C/1C [Ridaforolimus] (30 nM)
- normalised viability [1]: 40.8%
- normalised viability [2]: 53.8%
- normalised viability [3]: 72.4%
- normalised viability [4]: 54%
- normalised viability [5]: 37.9%
- normalised viability [6]: 27.9%

Compound: C=C1C[C@@H]2[C@H](CC[C@]3(C)C(=O)CC[C@@H]23)[C@@]2(C)C=CC(=O)C=C12 [Exemestane] (300 nM)
- normalised viability [1]: 87%
- normalised viability [2]: 88.5%
- normalised viability [3]: 78%
- normalised viability [4]: 81.7%
- normalised viability [5]: 97.1%
- normalised viability [6]: 90.8%

Compound: Cc1cc(Nc2cc(CN3CCOCC3)c3nc(C)c(Cc4ccc(Cl)cc4F)n3n2)n[nH]1 (300 nM)
- normalised viability [1]: 89.3%
- normalised viability [2]: 103%
- normalised viability [3]: 45.8%
- normalised viability [4]: 104%
- normalised viability [5]: 90.5%
- normalised viability [6]: 63.9%

Compound: Cc1[nH]c2ccccc2c1CCNCc1ccc(/C=C/C(=O)NO)cc1 [Panobinostat] (30 nM)
- normalised viability [1]: 21.1%
- normalised viability [2]: 42.8%
- normalised viability [3]: 62.8%
- normalised viability [4]: 27.3%
- normalised viability [5]: 68.8%
- normalised viability [6]: 3.77%

Compound: COc1cc(O)c2c(c1)/C=C/C[C@H](O)[C@H](O)C(=O)/C=C\C[C@H](C)OC2=O [(5Z)-7-Oxozeaenol] (10000 nM)
- normalised response [7]: -41.8%
- normalised response [8]: 83.6%
- normalised response [9]: 56.2%
- normalised response [10]: 51.8%
- normalised response [11]: 27.7%
- normalised response [12]: 87.9%
- normalised response [13]: 57.9%
- normalised response [14]: 79.2%
- normalised response [15]: 45.5%
- normalised response [16]: 97.8%
- normalised response [17]: 64.3%
- normalised response [18]: 28.4%
- normalised response [19]: 135%
- normalised response [20]: 102%
- normalised response [21]: 49.4%
- normalised response [22]: 67.3%
- normalised response [23]: 54.5%
- normalised response [24]: 85.9%
- normalised response [25]: 32.5%
- normalised response [26]: 41.3%
- normalised response [27]: 26.9%
- normalised response [28]: 21.4%
- normalised response [29]: 13.9%
- normalised response [30]: 20.5%
- normalised response [31]: 4.88%
- normalised response [32]: 4.83%
- normalised response [33]: 3.02%
- normalised response [34]: 32.7%
- normalised response [35]: 34.5%
- normalised response [36]: 23.5%
- normalised response [37]: 4.8%
- normalised response [38]: 39.9%
- normalised response [39]: 25.1%
- normalised response [40]: 9.82%
- normalised response [41]: 25.6%
- normalised response [42]: 14%
- normalised response [43]: 38.5%

Compound: CCOC(=O)CCNc1cc(N2CCc3ccccc3CC2)nc(-c2ccccn2)n1 [GSK-J4] (100000 nM)
- normalised response [7]: -33.8%
- normalised response [8]: -21.8%
- normalised response [9]: 3.2%
- normalised response [10]: -155%
- normalised response [11]: -35.9%
- normalised response [12]: -15.5%
- normalised response [13]: 79.7%
- normalised response [14]: -16.3%
- normalised response [15]: -10.9%
- normalised response [16]: 70.9%
- normalised response [17]: -83.7%
- normalised response [18]: -38.5%
- normalised response [19]: 24.1%
- normalised response [20]: -10.7%
- normalised response [21]: -146%
- normalised response [22]: -2.28%
- normalised response [23]: -13.6%
- normalised response [24]: 2.15%
- normalised response [25]: 0.08%
- normalised response [26]: 0.19%
- normalised response [27]: 0.06%
- normalised response [28]: 0.05%
- normalised response [29]: 0.22%
- normalised response [30]: 1.14%
- normalised response [31]: 0.52%
- normalised response [32]: 0.26%
- normalised response [33]: 0.09%
- normalised response [34]: -0.22%
- normalised response [35]: 0.14%
- normalised response [36]: -0.42%
- normalised response [37]: 0.03%
- normalised response [38]: -0.1%
- normalised response [39]: 0.01%
- normalised response [40]: 0.22%
- normalised response [41]: -0.08%
- normalised response [42]: 0.77%
- normalised response [43]: -0.16%
